From patent US20240208957A1, “TRIAZINE DERIVATIVE AS REVERSIBLE AND IRREVERSIBLE COVALENT INHIBITORS OF PI3K” (UNIVERSITÄT BASEL, priority 2021, published 2024)
Like-named read-outs stand apart in the source and are kept apart here.

Legend:
[1] = Intrinsic reactivity of the inhibitors with βME measured with HPLC; assay type: physicochemical; conditions: 1 mM inhibitor + 600 mM βME, n = 3, mean
Text: E˜I→EI • ii) off-target reactions with ubiquitous sulfhydryls (S) and other nucleophils present in physiologic environments such as cells and body fluids are driven by the intrinsic reactivity of the warhead that is defined by Kchem driving the conversion of S and I to form the sulfhydryl-adduct (SI) [table]

p110α (PI3Kα) = p110α (PI3Kα) (Homo sapiens, UniProt P42336); test: LanthaScreen determination of kinetic constants (kinact, Ki) for p110α; assay type: binding; conditions: for Ki: dissociation constant of the first reversible binding, mean of 3; for kinact: read-out: kinact PI3Kα;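 as to all read-outs here: covalent inhibition constants for p110α come from LanthaScreen data, fitted globally by numerical integration in KinTek Global Kinetic Explorer software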
p110α (PI3Kα), sequence (P42336 whole entry): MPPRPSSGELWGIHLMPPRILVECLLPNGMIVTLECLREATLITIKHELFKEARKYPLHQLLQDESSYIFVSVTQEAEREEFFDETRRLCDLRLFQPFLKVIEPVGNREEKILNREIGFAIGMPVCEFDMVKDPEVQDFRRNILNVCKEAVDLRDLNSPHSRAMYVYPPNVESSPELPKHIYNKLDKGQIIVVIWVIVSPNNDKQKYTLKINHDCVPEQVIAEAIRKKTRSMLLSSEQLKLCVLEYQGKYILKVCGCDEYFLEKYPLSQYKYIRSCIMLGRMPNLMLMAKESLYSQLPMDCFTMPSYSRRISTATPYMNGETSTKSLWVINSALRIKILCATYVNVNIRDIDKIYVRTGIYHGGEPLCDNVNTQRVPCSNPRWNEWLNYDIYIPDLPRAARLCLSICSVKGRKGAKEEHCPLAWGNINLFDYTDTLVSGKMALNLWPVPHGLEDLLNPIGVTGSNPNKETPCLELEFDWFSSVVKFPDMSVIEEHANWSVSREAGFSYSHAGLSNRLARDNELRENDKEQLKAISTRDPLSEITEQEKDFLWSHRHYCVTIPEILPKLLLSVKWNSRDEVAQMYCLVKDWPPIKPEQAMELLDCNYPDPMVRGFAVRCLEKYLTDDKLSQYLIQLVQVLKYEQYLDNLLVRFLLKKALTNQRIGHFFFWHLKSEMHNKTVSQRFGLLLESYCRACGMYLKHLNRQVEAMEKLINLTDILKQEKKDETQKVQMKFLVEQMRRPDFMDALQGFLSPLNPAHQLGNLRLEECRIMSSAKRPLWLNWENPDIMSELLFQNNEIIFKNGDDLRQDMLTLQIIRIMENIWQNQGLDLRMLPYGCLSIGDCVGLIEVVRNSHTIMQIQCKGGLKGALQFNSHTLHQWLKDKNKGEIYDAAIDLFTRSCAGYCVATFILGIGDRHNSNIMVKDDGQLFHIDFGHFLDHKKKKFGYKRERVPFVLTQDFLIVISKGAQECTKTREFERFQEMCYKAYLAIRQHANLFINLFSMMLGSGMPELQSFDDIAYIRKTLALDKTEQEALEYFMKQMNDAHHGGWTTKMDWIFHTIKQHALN
p110α (PI3Kα), sequence (P27986 whole entry partner): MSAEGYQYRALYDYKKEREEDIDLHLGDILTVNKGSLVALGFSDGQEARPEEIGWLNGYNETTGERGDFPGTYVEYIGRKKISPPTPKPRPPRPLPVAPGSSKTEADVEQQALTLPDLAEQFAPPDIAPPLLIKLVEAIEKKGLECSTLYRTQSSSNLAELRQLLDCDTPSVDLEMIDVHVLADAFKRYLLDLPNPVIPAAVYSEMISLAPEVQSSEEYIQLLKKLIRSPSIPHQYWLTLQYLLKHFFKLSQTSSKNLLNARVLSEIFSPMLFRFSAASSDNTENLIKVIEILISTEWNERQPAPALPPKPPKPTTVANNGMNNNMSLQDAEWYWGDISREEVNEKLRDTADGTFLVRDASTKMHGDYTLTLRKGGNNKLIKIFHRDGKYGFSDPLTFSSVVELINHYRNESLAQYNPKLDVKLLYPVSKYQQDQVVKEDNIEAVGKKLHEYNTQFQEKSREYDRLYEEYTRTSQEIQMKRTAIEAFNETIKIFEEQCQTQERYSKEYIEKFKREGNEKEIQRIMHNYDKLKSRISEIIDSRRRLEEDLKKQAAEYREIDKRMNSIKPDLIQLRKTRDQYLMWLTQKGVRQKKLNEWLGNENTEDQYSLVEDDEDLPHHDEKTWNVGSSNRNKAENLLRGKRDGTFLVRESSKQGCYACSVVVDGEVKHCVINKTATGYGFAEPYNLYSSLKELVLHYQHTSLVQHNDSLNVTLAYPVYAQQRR
Description: Apparent dissociation constants of compounds [Ki(app)] for p110α were determined by LanthaScreen Technology (Life Technologies), as described in Ref.^21.
Maximum potential rate of covalent bond formation (Kinact) and dissociation constant of the first reversible binding (Ki) of compounds for p110α were determined by LanthaScreen Technology (Life Technologies). The calculation of kinetic parameters was carried out through global fitting for numerical integration by using KinTek Global Kinetic Explorer modelling software^22-27.

[2] = system: pSer473 of PKB/Akt in SKOV3 cells; test: In-Cell Western cellular PI3K signaling, pSer473 of PKB/Akt in SKOV3 cells; assay type: cell-based; conditions: Homo sapiens
Description: Protein phosphorylation was detected as follows: pSer473 of PKB/Akt with rabbit polyclonal antibody from Cell Signaling Technology (CST) (#4058) by In-Cell Western assays, where 1.2×10^4 SKOV3 cells/well in 96-well plates were plated (Cell Carrier, PerkinElmer) for 24 hours (37° C., 5% CO2), as described in Ref.^21.

[3] = mean of 3 independent measurements, global fitting with KinTek
[4] = SK-OV-3, SKOV3 cells, mean of 2 or 3 independent measurements, read-out: IC50 pPKB (S473) SKOV3
[5] = SK-OV-3, read-out: IC50 pPKB (S473) SKOV3

| Compound | kchem [1] [M⁻¹ s⁻¹] | kinact/KI (p110α (PI3Kα); PI3Kα, read-out: kinact/Ki) [M⁻¹ s⁻¹] | Ki (p110α (PI3Kα)) [µM] | kinact (p110α (PI3Kα); [3]) [s⁻¹] | IC50 [2, 4] [µM] | kinact/KI (p110α (PI3Kα)) [M⁻¹ s⁻¹] | kinact (p110α (PI3Kα)) [s⁻¹] | IC50 [2, 5] [µM] |
| --- | --- | --- | --- | --- | --- | --- | --- | --- |
| C=CC(=O)N1CCC[C@H](C(=O)NCC(=O)N2CCN(c3nc(-c4cnc(N)nc4C(F)F)nc(N4CCOCC4)n3)CC2)C1 [Compound 15, (S)-1-acryloyl-N-(2-(4-(4-(2-amino-4-(difluoromethyl)pyrimidin-5-yl)-6-morpholino-1,3,5-triazin-2-yl)piperazin-1-yl)-2-oxoethyl)piperidine-3-carboxamide] | 0.00073 | 151000 | 0.00363 | 0.000547 | 0.133 | – | – | – |
| C=CC(=O)N1CCC[C@@H](C(=O)NCC(=O)N2CCN(c3nc(-c4cnc(N)nc4C(F)F)nc(N4CCOCC4)n3)CC2)C1 [Compound 16, (R)-1-acryloyl-N-(2-(4-(4-(2-amino-4-(difluoromethyl)pyrimidin-5-yl)-6-morpholino-1,3,5-triazin-2-yl)piperazin-1-yl)-2-oxoethyl)piperidine-3-carboxamide] | 0.00076 | 914000 | 0.00389 | 0.00356 | 0.0275 | – | – | – |
| C=CC(=O)N1CCC[C@H](C(=O)N(C)CC(=O)N2CCN(c3nc(-c4cnc(N)nc4C(F)F)nc(N4CCOCC4)n3)CC2)C1 [Compound 17, (S)-1-acryloyl-N-(2-(4-(4-(2-amino-4-(difluoromethyl)pyrimidin-5-yl)-6-morpholino-1,3,5-triazin-2-yl)piperazin-1-yl)-2-oxoethyl)-N-methylpiperidine-3-carboxamide] | 0.00068 | 32700 | 0.00766 | 0.000251 | 0.0857 | – | – | – |
| C=CC(=O)N1CCC[C@@H](C(=O)N(C)CC(=O)N2CCN(c3nc(-c4cnc(N)nc4C(F)F)nc(N4CCOCC4)n3)CC2)C1 [Compound 18, (R)-1-acryloyl-N-(2-(4-(4-(2-amino-4-(difluoromethyl)pyrimidin-5-yl)-6-morpholino-1,3,5-triazin-2-yl)piperazin-1-yl)-2-oxoethyl)-N-methylpiperidine-3-carboxamide] | 0.000704 | – | 0.00608 | – | – | 711000 | 0.00433 | 0.0153 |
| C=CC(=O)N1CCCC[C@H]1C(=O)NCC(=O)N1CCN(c2nc(-c3cnc(N)nc3C(F)F)nc(N3CCOCC3)n2)CC1 [Compound 20, (S)-1-acryloyl-N-(2-(4-(4-(2-amino-4-(difluoromethyl)pyrimidin-5-yl)-6-morpholino-1,3,5-triazin-2-yl)piperazin-1-yl)-2-oxoethyl)piperidine-2-carboxamide] | 0.00444 | 212000 | 0.00306 | 0.00065 | 0.0593 | – | – | – |
| C=CC(=O)N1CCCC[C@@H]1C(=O)NCC(=O)N1CCN(c2nc(-c3cnc(N)nc3C(F)F)nc(N3CCOCC3)n2)CC1 [Compound 21, (R)-1-acryloyl-N-(2-(4-(4-(2-amino-4-(difluoromethyl)pyrimidin-5-yl)-6-morpholino-1,3,5-triazin-2-yl)piperazin-1-yl)-2-oxoethyl)piperidine-2-carboxamide] | 0.00469 | 227000 | 0.00385 | 0.000875 | 0.0898 | – | – | – |
| C=CC(=O)N1CCCC[C@H]1C(=O)N(C)CC(=O)N1CCN(c2nc(-c3cnc(N)nc3C(F)F)nc(N3CCOCC3)n2)CC1 [Compound 22, (S)-1-acryloyl-N-(2-(4-(4-(2-amino-4-(difluoromethyl)pyrimidin-5-yl)-6-morpholino-1,3,5-triazin-2-yl)piperazin-1-yl)-2-oxoethyl)-N-methylpiperidine-2-carboxamide] | 0.00094 | 54000 | 0.00574 | 0.000309 | 0.0293 | – | – | – |
| C=CC(=O)N1CCCC[C@@H]1C(=O)N(C)CC(=O)N1CCN(c2nc(-c3cnc(N)nc3C(F)F)nc(N3CCOCC3)n2)CC1 [Compound 23, (R)-1-acryloyl-N-(2-(4-(4-(2-amino-4-(difluoromethyl)pyrimidin-5-yl)-6-morpholino-1,3,5-triazin-2-yl)piperazin-1-yl)-2-oxoethyl)-N-methylpiperidine-2-carboxamide] | 0.001 | 27200 | 0.00847 | 0.000231 | 0.0605 | – | – | – |
| C=CC(=O)N1CC[C@H](C(=O)NCC(=O)N2CCN(c3nc(-c4cnc(N)nc4C(F)F)nc(N4CCOCC4)n3)CC2)C1 [Compound 24, (S)-1-acryloyl-N-(2-(4-(4-(2-amino-4-(difluoromethyl)pyrimidin-5-yl)-6-morpholino-1,3,5-triazin-2-yl)piperazin-1-yl)-2-oxoethyl)pyrrolidine-3-carboxamide] | 0.00059 | 311000 | 0.00834 | 0.0026 | 0.094 | – | – | – |
| C=CC(=O)N1CC[C@@H](C(=O)NCC(=O)N2CCN(c3nc(-c4cnc(N)nc4C(F)F)nc(N4CCOCC4)n3)CC2)C1 [Compound 25, (R)-1-acryloyl-N-(2-(4-(4-(2-amino-4-(difluoromethyl)pyrimidin-5-yl)-6-morpholino-1,3,5-triazin-2-yl)piperazin-1-yl)-2-oxoethyl)pyrrolidine-3-carboxamide] | 0.00062 | – | 0.00536 | – | – | 961000 | 0.00514 | 0.042 |
| C=CC(=O)N1CC[C@H](C(=O)N(C)CC(=O)N2CCN(c3nc(-c4cnc(N)nc4C(F)F)nc(N4CCOCC4)n3)CC2)C1 [Compound 26, (S)-1-acryloyl-N-(2-(4-(4-(2-amino-4-(difluoromethyl)pyrimidin-5-yl)-6-morpholino-1,3,5-triazin-2-yl)piperazin-1-yl)-2-oxoethyl)-N-methylpyrrolidine-3-carboxamide] | 0.0005 | 150000 | 0.00528 | 0.000789 | 0.227 | – | – | – |
| C=CC(=O)N1CC[C@@H](C(=O)N(C)CC(=O)N2CCN(c3nc(-c4cnc(N)nc4C(F)F)nc(N4CCOCC4)n3)CC2)C1 [Compound 27, (R)-1-acryloyl-N-(2-(4-(4-(2-amino-4-(difluoromethyl)pyrimidin-5-yl)-6-morpholino-1,3,5-triazin-2-yl)piperazin-1-yl)-2-oxoethyl)-N-methylpyrrolidine-3-carboxamide] | 0.00049 | 531000 | 0.00607 | 0.0032 | 0.0641 | – | – | – |
| C=CC(=O)N1CCC[C@H]1C(=O)N(C)CC(=O)N1CCN(c2nc(-c3cnc(N)nc3C(F)F)nc(N3CCOCC3)n2)CC1 [Compound 30, (S)-1-acryloyl-N-(2-(4-(4-(2-amino-4-(difluoromethyl)pyrimidin-5-yl)-6-morpholino-1,3,5-triazin-2-yl)piperazin-1-yl)-2-oxoethyl)-N-methylpyrrolidine-2-carboxamide] | 0.00058 | – | – | – | – | – | – | – |
| C=CC(=O)N1CCC[C@@H]1C(=O)N(C)CC(=O)N1CCN(c2nc(-c3cnc(N)nc3C(F)F)nc(N3CCOCC3)n2)CC1 [Compound 31, (R)-1-acryloyl-N-(2-(4-(4-(2-amino-4-(difluoromethyl)pyrimidin-5-yl)-6-morpholino-1,3,5-triazin-2-yl)piperazin-1-yl)-2-oxoethyl)-N-methylpyrrolidine-2-carboxamide] | 0.00052 | – | – | – | 0.447 | – | – | – |
| C=CC(=O)N1CC(C(=O)NCC(=O)N2CCN(c3nc(-c4cnc(N)nc4C(F)F)nc(N4CCOCC4)n3)CC2)C1 [Compound 32, 1-acryloyl-N-(2-(4-(4-(2-amino-4-(difluoromethyl)pyrimidin-5-yl)-6-morpholino-1,3,5-triazin-2-yl)piperazin-1-yl)-2-oxoethyl)azetidine-3-carboxamide] | 0.00517 | – | – | – | 0.175 | – | – | – |
| C=CC(=O)N1CC(C(=O)N(C)CCC(=O)N2CCN(c3nc(-c4cnc(N)nc4C(F)F)nc(N4CCOCC4)n3)CC2)C1 [Compound 37, 1-acryloyl-N-(3-(4-(4-(2-amino-4-(difluoromethyl)pyrimidin-5-yl)-6-morpholino-1,3,5-triazin-2-yl)piperazin-1-yl)-3-oxopropyl)-N-methylazetidine-3-carboxamide] | 0.00636 | – | – | – | 0.196 | – | – | – |
| C=CC(=O)N1CCC(C(=O)NCC(=O)N2CCN(c3nc(-c4cnc(N)nc4C(F)F)nc(N4CCOCC4)n3)CC2)CC1 [Compound 44, 1-acryloyl-N-(2-(4-(4-(2-amino-4-(difluoromethyl)pyrimidin-5-yl)-6-morpholino-1,3,5-triazin-2-yl)piperazin-1-yl)-2-oxoethyl)piperidine-4-carboxamide] | 0.00037 | – | – | – | 0.082 | – | – | – |
| C=CC(=O)N1CCC(C(=O)N(C)CC(=O)N2CCN(c3nc(-c4cnc(N)nc4C(F)F)nc(N4CCOCC4)n3)CC2)CC1 [Compound 45, 1-acryloyl-N-(2-(4-(4-(2-amino-4-(difluoromethyl)pyrimidin-5-yl)-6-morpholino-1,3,5-triazin-2-yl)piperazin-1-yl)-2-oxoethyl)-N-methylpiperidine-4-carboxamide] | 0.000354 | – | – | – | 0.086 | – | – | – |
